Values after ≈ are worked out from the molar mass of the structure shown.
Key:
[1] = Antiinflammatory activity against heat-induced albumin denaturation at […] preincubated for 15 mins before heat induction by UV-vis spectrophotometer analysis; assay type: functional
Aspergillus flavus [2] = test: Antimicrobial activity against Aspergillus flavus MTCC 873; assay type: functional
Aspergillus niger [3] = test: Antimicrobial activity against Aspergillus niger MTCC 281; assay type: functional
Shigella flexneri [4] = test: Antimicrobial activity against Shigella flexneri MTCC 1457; assay type: functional
Escherichia coli [5] = test: Antimicrobial activity against Escherichia coli MTCC 724; assay type: functional
Klebsiella pneumoniae [6] = test: Antimicrobial activity against Klebsiella pneumoniae MTCC 3384; assay type: functional
Staphylococcus aureus [7] = test: Antimicrobial activity against Staphylococcus aureus MTCC 96; assay type: functional
Bacillus cereus [8] = test: Antimicrobial activity against Bacillus cereus MTCC 8372; assay type: functional
Aspergillus niger [9] = test: Antimicrobial activity against Aspergillus niger MTCC 281 at 50 ug/ml after 24 hrs by agar disc diffusion method; assay type: functional; conditions: MTCC 281, 24 h, read-out: DIZ
Aspergillus niger [10] = test: Antimicrobial activity against Aspergillus niger MTCC 281 at 100 ug/ml after 24 hrs by agar disc diffusion method; assay type: functional; conditions: MTCC 281, 24 h, read-out: DIZ
Aspergillus flavus [11] = test: Antimicrobial activity against Aspergillus flavus MTCC 873 at 100 ug/ml after 24 hrs by agar disc diffusion method; assay type: functional; conditions: MTCC 873, 24 h, read-out: DIZ
Aspergillus flavus [12] = test: Antimicrobial activity against Aspergillus flavus MTCC 873 at 50 ug/ml after 24 hrs by agar disc diffusion method; assay type: functional; conditions: MTCC 873, 24 h, read-out: DIZ
Shigella flexneri [13] = test: Antimicrobial activity against Shigella flexneri MTCC 1457 at 100 ug/ml after 24 hrs by agar disc diffusion method; assay type: functional; conditions: MTCC 1457, 24 h, read-out: DIZ
Shigella flexneri [14] = test: Antimicrobial activity against Shigella flexneri MTCC 1457 at 50 ug/ml after 24 hrs by agar disc diffusion method; assay type: functional; conditions: MTCC 1457, 24 h, read-out: DIZ
Klebsiella pneumoniae [15] = test: Antimicrobial activity against Klebsiella pneumoniae MTCC 3384 at 100 ug/ml after 24 hrs by agar disc diffusion method; assay type: functional; conditions: MTCC 3384, 24 h, read-out: DIZ
Klebsiella pneumoniae [16] = test: Antimicrobial activity against Klebsiella pneumoniae MTCC 3384 at 50 ug/ml after 24 hrs by agar disc diffusion method; assay type: functional; conditions: MTCC 3384, 24 h, read-out: DIZ
Escherichia coli [17] = test: Antimicrobial activity against Escherichia coli MTCC 724 at 100 ug/ml after 24 hrs by agar disc diffusion method; assay type: functional; conditions: MTCC 724, 24 h, read-out: DIZ
Escherichia coli [18] = test: Antimicrobial activity against Escherichia coli MTCC 724 at 50 ug/ml after 24 hrs by agar disc diffusion method; assay type: functional; conditions: MTCC 724, 24 h, read-out: DIZ
Staphylococcus aureus [19] = test: Antimicrobial activity against Staphylococcus aureus MTCC 96 at 100 ug/ml after 24 hrs by agar disc diffusion method; assay type: functional; conditions: MTCC 96, 24 h, read-out: DIZ
Staphylococcus aureus [20] = test: Antimicrobial activity against Staphylococcus aureus MTCC 96 at 50 ug/ml after 24 hrs by agar disc diffusion method; assay type: functional; conditions: MTCC 96, 24 h, read-out: DIZ
Bacillus cereus [21] = test: Antimicrobial activity against Bacillus cereus MTCC 8372 at 100 ug/ml after 24 hrs by agar disc diffusion method; assay type: functional; conditions: MTCC 8372, 24 h, read-out: DIZ
Bacillus cereus [22] = test: Antimicrobial activity against Bacillus cereus MTCC 8372 at 50 ug/ml after 24 hrs by agar disc diffusion method; assay type: functional; conditions: MTCC 8372, 24 h, read-out: DIZ
[23] = Ratio of vitamin-E to compound for ferric chloride-induced lipid peroxidation; assay type: physicochemical
[24] = Antioxidant activity against ferric chloride-induced lipid peroxidation using egg lecithin at 50 ug/ml after 1 hr; assay type: functional
[25] = Antioxidant activity against ferric chloride-induced lipid peroxidation using egg lecithin at 100 ug/ml after 1 hr; assay type: functional
[26] = Antioxidant activity against ferric chloride-induced lipid peroxidation using egg lecithin at 10 ug/ml after 1 hr; assay type: functional
[27] = Antioxidant activity assessed as reducing power of ferric ion at 50 ug/ml after 20 mins; assay type: functional; parameters: scale not given: the % may be the effect or the level left
[28] = Antioxidant activity assessed as reducing power of ferric ion at 100 ug/ml after 20 mins; assay type: functional; parameters: scale not given: the % may be the effect or the level left
[29] = Antioxidant activity assessed as reducing power of ferric ion at 10 ug/ml after 20 mins; assay type: functional; parameters: scale not given: the % may be the effect or the level left
[30] = system: Radical scavenging activity; test: Antioxidant activity assessed as DPPH free radical scavenging activity at 50 ug/ml after 20 mins; assay type: functional
[31] = system: Radical scavenging activity; test: Antioxidant activity assessed as DPPH free radical scavenging activity at 100 ug/ml after 20 mins; assay type: functional
[32] = system: Radical scavenging activity; test: Antioxidant activity assessed as DPPH free radical scavenging activity at 10 ug/ml after 20 mins; assay type: functional

Compound: N/C(=N\O)C1CC(c2ccc(O)cc2)=NN1c1ccccc1 (configuration not stated)
- inhibition [1]: 63.5%
- MIC (Aspergillus flavus [2]): 35 µg/mL (≈ 118 µM)
- MIC (Aspergillus niger [3]): 15 µg/mL (≈ 50.6 µM)
- MIC (Shigella flexneri [4]): 10 µg/mL (≈ 33.7 µM)
- MIC (Escherichia coli [5]): 15 µg/mL (≈ 50.6 µM)
- MIC (Klebsiella pneumoniae [6]): 20 µg/mL (≈ 67.5 µM)
- MIC (Staphylococcus aureus [7]): 50 µg/mL (≈ 169 µM)
- MIC (Bacillus cereus [8]): 40 µg/mL (≈ 135 µM)
- zone of inhibition at 50 µg/mL (Aspergillus niger [9]): 10 mm
- zone of inhibition at 100 µg/mL (Aspergillus niger [10]): 14 mm
- zone of inhibition at 100 µg/mL (Aspergillus flavus [11]): 12 mm
- zone of inhibition at 50 µg/mL (Aspergillus flavus [12]): 5 mm
- zone of inhibition at 100 µg/mL (Shigella flexneri [13]): 20 mm
- zone of inhibition at 50 µg/mL (Shigella flexneri [14]): 12 mm
- zone of inhibition at 100 µg/mL (Klebsiella pneumoniae [15]): 12 mm
- zone of inhibition at 50 µg/mL (Klebsiella pneumoniae [16]): 8 mm
- zone of inhibition at 100 µg/mL (Escherichia coli [17]): 16 mm
- zone of inhibition at 50 µg/mL (Escherichia coli [18]): 10 mm
- zone of inhibition at 100 µg/mL (Staphylococcus aureus [19]): 8 mm
- zone of inhibition at 50 µg/mL (Staphylococcus aureus [20]): 2 mm
- zone of inhibition at 100 µg/mL (Bacillus cereus [21]): 3 mm
- zone of inhibition at 50 µg/mL (Bacillus cereus [22]): 3 mm
- Ratio [23]: 3
- inhibition [24]: 18%
- inhibition [25]: 20%
- inhibition [26]: 12%
- Activity [27]: 34%
- Activity [28]: 79%
- Activity [29]: 12%
- Activity [30]: 41%
- Activity [31]: 76%
- Activity [32]: 24%

Reference: ChEMBL document CHEMBL2406981, “Novel pyrazoline amidoxime and their 1,2,4-oxadiazole analogues: synthesis and pharmacological screening” (Bioorg Med Chem Lett, 2013)
